Values of other authors in US20100120744A1, “ACETAM[…] NMDA RECEPTORS” (AUSPEX PHARMACEUTICALS, INC., priority 2008, published 2010).

Conditions: in vivo

CC(=O)NCCCS(=O)(=O)O [Acamprosate, 3-acetamidopropane-1-sulfonic acid]
metabolism by the body: not metabolized
